Columns and labels:
[1] = system: PI3-K in BT20 cells (phosphorylation of AKT at serine 473); assay: PI3-Kα Cellular Assay (AKT Ser473 phosphorylation ELISA in BT20 cells); format: cell-based, human; details: Homo sapiens, BT-20, pAKT Ser473 ELISA, 1 hour incubation
In short: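 Cells seeded overnight in 0.5% FBS, then exposed 1 h at 37 °C to an 11-concentration 1:3 dilution series, in duplicate.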

PI3-Kα = PI3-Kα (Mus musculus (Mouse), UniProt P42337); assay: PI3-Kα Biochemical Assay (fluorescence polarization kinase assay)
Experimental: Compounds of the present invention were evaluated for potency against PI3-Kα using an in vitro kinase assay. PI3-Kα activity is measured in vitro by determining the level of phosphorylation of the substrate PI(4,5)P2. The formation of product PI(3,4,5)P3 is monitored by binding to the Grip1 PH domain in a ligand displacement fluorescence polarization (FP) assay, in which the TAMRA-labeled PI(3,4,5)P3 complexed with Grip1 PH domain is displaced by PI(3,4,5)P3 formed in the PI3-Kα reaction resulting in a decrease in FP signal. Mouse PI3-Kα P110 and P85 subunits were co-expressed in insect cells and co-purified to homogeneity. PI(4,5)P2 were obtained from Cayman. TAMRA-labeled PI(3,4,5)P3 were from Echelon, Grip1 PH domain from Dundee and other reagents were from Sigma.
All assays were performed in a Corning solid black 96-well half area plate using LJL Analyst (Molecular Devices) at room temperature. The assay buffer contained 50 mM HEPES, pH 7.4, 150 mM NaCl, 5 mM DTT, and 0.05% CHAPS. Dry powder PI(4,5)P2 was dissolved in 50 mM TRIS, pH 8 to make 1 mM stock solution. The PI(4,5)P2 stock solution was then diluted in the assay buffer to 60 μM, and sonicated for 30 sec before use. To the assay plate, the following reagents were added in sequence: 10 μL of 60 μM PI(4,5)P2, 5 μL of 4 nM PI3-Kα, 2 μL of compound in 25% DMSO, 3 μL of mixture containing 200 μM ATP and 33 mM MgCl2. The final volume for the reaction was 20 μL. The reaction mixture was incubated at room temperature for 35 min. The reaction was then stopped by 20 μL of 20 mM EDTA. […] The FP signal was allowed to develop for 40 min before reading on a LJL analyst at excitation 535 nm and emission 580 nm.
The percentage of inhibition was calculated based on the following equation % inhibition=[1−(FPcompound−FPmax)/(FPmin−FPmax)]×100, where FPcompound is the FP reading at a given compound concentration, FPmin is the FP signal of the PI3-Kα reaction in the absence of a compound, and FPmax is the background FP signal in the absence of PI3-Kα and a compound. The IC50 was determined by fitting the FP signal vs. compound concentration to a sigmoidal dose response equation using GraphPad Prism curve fitting program.

Sequence of PI3-Kα (P42337 whole entry, the tested form may be a part): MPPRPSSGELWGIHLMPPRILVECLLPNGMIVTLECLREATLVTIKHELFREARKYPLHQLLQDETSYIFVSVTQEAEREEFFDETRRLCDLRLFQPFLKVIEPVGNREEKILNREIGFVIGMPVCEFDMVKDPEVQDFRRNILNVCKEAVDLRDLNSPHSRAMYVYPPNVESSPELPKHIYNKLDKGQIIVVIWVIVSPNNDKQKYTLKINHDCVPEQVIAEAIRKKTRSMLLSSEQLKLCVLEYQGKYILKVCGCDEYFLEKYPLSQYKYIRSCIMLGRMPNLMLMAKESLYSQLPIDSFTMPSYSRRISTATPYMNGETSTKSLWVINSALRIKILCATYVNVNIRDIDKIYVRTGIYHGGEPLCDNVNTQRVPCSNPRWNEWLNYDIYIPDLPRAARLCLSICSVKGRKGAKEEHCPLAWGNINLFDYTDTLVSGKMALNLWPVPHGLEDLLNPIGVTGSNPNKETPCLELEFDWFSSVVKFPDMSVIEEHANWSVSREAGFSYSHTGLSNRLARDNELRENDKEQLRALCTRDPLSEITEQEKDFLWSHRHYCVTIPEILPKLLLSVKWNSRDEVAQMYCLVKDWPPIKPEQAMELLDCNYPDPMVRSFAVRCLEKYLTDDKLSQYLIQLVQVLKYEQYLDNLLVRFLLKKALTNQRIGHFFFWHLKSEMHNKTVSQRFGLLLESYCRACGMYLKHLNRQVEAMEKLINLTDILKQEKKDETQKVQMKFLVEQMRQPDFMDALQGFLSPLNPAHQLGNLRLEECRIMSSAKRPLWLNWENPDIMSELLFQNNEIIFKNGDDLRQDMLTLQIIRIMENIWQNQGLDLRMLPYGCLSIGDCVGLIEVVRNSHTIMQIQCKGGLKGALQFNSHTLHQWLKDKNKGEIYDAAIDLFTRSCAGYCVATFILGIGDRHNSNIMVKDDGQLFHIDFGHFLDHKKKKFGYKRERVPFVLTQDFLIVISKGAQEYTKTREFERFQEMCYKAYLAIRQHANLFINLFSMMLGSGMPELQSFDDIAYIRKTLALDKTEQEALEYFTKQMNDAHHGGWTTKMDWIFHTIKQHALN
Sequence of PI3-Kα (P26450 whole entry partner, the tested form may be a part): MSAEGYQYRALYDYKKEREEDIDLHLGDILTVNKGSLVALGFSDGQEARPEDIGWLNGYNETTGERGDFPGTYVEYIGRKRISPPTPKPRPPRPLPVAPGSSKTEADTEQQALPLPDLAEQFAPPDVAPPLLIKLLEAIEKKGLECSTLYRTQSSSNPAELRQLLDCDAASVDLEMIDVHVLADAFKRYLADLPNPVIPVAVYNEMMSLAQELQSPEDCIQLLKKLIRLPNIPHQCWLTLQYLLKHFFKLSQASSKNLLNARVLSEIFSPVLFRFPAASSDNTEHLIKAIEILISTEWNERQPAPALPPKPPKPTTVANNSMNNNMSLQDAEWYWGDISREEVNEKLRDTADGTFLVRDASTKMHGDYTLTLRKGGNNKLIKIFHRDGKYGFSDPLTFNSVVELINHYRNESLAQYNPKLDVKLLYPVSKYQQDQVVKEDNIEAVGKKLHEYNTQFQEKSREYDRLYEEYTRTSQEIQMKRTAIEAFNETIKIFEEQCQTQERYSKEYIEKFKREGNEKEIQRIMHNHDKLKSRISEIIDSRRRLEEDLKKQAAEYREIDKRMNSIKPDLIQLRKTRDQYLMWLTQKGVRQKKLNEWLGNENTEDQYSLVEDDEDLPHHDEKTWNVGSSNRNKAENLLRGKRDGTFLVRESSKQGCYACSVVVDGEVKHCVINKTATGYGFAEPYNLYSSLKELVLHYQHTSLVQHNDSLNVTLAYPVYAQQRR

IC50 [1] | IC50 (PI3-Kα) | Compound
46.1 nM | 1.77 nM | CCNc1nc(C)c2cc(-c3cnc4[nH]ccc4c3)c(=O)n(C3CCCC3)c2n1 [Compound 135, 8-cyclopentyl-2-(ethylamino)-4-methyl-6-(1H-pyrrolo[2,3-b]pyridin-5-yl)pyrido[2,3-d]pyrimidin-7(8H)-one]
19 nM | 0.989 nM | COc1cc(-c2cc3c(C)nc(N)nc3n(C3CCCC3)c2=O)ccc1O [Compound 137, 2-amino-8-cyclopentyl-6-(4-hydroxy-3-methoxyphenyl)-4-methylpyrido[2,3-d]pyrimidin-7(8H)-one]
146 nM | 29.7 nM | CNc1nc(C)c2cc(-c3ccc(Cl)nc3)c(=O)n(C3CCCC3)c2n1 [Compound 138, 6-(6-chloropyridin-3-yl)-8-cyclopentyl-4-methyl-2-(methylamino)pyrido[2,3-d]pyrimidin-7(8H)-one]
1390 nM | 792 nM | CCNc1nc(C)c2cc(-c3cccc(OC)c3)c(=O)n(C3CCCC3)c2n1 [Compound 142, 8-cyclopentyl-2-(ethylamino)-6-(3-methoxyphenyl)-4-methylpyrido[2,3-d]pyrimidin-7(8H)-one]
669 nM | 244 nM | CNc1nc(C)c2cc(-c3cccc(OC)c3)c(=O)n(C3CCCC3)c2n1 [Compound 143, 8-cyclopentyl-6-(3-methoxyphenyl)-4-methyl-2-(methylamino)pyrido[2,3-d]pyrimidin-7(8H)-one]
622 nM | 168 nM | COc1cccc(-c2cc3c(C)nc(N)nc3n(C3CCCC3)c2=O)c1 [Compound 145, 2-amino-8-cyclopentyl-6-(3-methoxyphenyl)-4-methylpyrido[2,3-d]pyrimidin-7(8H)-one]
1.76 nM | 0.731 nM | CNc1nc(C)c2cc(-c3cccc(O)c3)c(=O)n(C3CCCC3)c2n1 [Compound 146, 8-cyclopentyl-6-(3-hydroxyphenyl)-4-methyl-2-(methylamino)pyrido[2,3-d]pyrimidin-7(8H)-one]
4.84 nM | 0.524 nM | Cc1nc(N)nc2c1cc(-c1cccc(O)c1)c(=O)n2C1CCCC1 [Compound 147, 2-Amino-8-cyclopentyl-6-(3-hydroxyphenyl)-4-methylpyrido[2,3-d]pyrimidin-7(8H)-one]
14.7 nM | 4.78 nM | CNc1nc(C)c2cc(-c3cccc(CO)c3)c(=O)n(C3CCCC3)c2n1 [Compound 148, 8-Cyclopentyl-6-(3-(hydroxymethyl)phenyl)-4-methyl-2-(methylamino)pyrido[2,3-d]pyrimidin-7(8H)-one]
> 10000 nM | 310 nM | COc1ccc(Cn2c(=O)c(-c3ccccc3)cc3c(C)nc(N)nc32)cc1 [Compound 149, 8-(4-Methoxybenzyl)-2-amino-4-methyl-6-phenylpyrido[2,3-d]pyrimidin-7(8H)-one]
> 10000 nM | 1400 nM | Cc1nc(N)nc2c1cc(-c1ccccc1)c(=O)n2Cc1ccc(Cl)cc1 [Compound 150, 8-(4-Chlorobenzyl)-2-amino-4-methyl-6-phenylpyrido[2,3-d]pyrimidin-7(8H)-one]
> 10000 nM | 4900 nM | Cc1nc(N)nc2c1cc(-c1ccncc1)c(=O)n2Cc1ccc(Cl)cc1 [Compound 151, 8-(4-Chlorobenzyl)-2-amino-4-methyl-6-(pyridin-4-yl)pyrido[2,3-d]pyrimidin-7(8H)-one]
475 nM | 18 nM | Cc1nc(N)nc2c1cc(-c1cnn(C)c1)c(=O)n2[C@H]1CC[C@H](O)CC1 [Compound 154, 2-amino-8-(trans-4-hydroxycyclohexyl)-4-methyl-6-(1-melhyl-1H-pyrazol-4-yl)pyrido[2,3-d]pyrimidin-7(8H)-one]
82.9 nM | 11 nM | COc1ccc(-c2cc3c(C)nc(N)nc3n([C@@H]3CC[C@H](O)C3)c2=O)cn1 [Compound 155, 2-amino-8-[(1R,3S)-3-hydroxycyclopentyl]-6-(6-methoxypyridin-3-yl)-4-methylpyrido[2,3-d]pyrimidin-7(8H)-one]
169 nM | 6.7 nM | Cc1nc(N)nc2c1cc(-c1cn[nH]c1)c(=O)n2[C@H]1CC[C@H](O)CC1 [Compound 156, 2-amino-8-(trans-4-hydroxycyclohexyl)-4-methyl-6-(1H-pyrazol-4-yl)pyrido(2,3-d]pyrimidin-7(8H)-one]
31.9 nM | 1.3 nM | Cc1nc(N)nc2c1cc(-c1cnc3[nH]ccc3c1)c(=O)n2[C@H]1CC[C@H](O)CC1 [Compound 158, 2-amino-8-(trans-4-hydroxycyclohexyl)-4-methyl-6-(1H-pyrrolo[2,3-b]pyridin-5-yl)pyrido[2,3-d]pyrimidin-7(8H)-one]
87.6 nM | 4.6 nM | COc1ccc(-c2cc3c(C)nc(N)nc3n([C@@H]3CC[C@@H](O)C3)c2=O)cn1 [Compound 159, 2-amino-8-[(1R,3R)-3-hydroxycyclopentyl]-6-(6-methoxypyridin-3-yl)-4-methylpyrido[2,3-d]pyrimidin-7(8H)-one]
20.4 nM | 1.2 nM | Cc1nc(N)nc2c1cc(-c1cnc3[nH]ccc3c1)c(=O)n2[C@@H]1CC[C@H](O)C1 [Compound 163, 2-amino-8-[(1R,3S)-3-hydroxycyclopentyl]-4-methyl-6-(1H-pyrrolo[2,3-b]pyridin-5-yl)pyrido[2,3-d]pyrimidin-7(8H)-one]
55.8 nM | 1.2 nM | Cc1nc(N)nc2c1cc(-c1cnc3[nH]ccc3c1)c(=O)n2[C@@H]1CC[C@@H](O)C1 [Compound 165, 2-amino-8-[(1R,3R)-3-hydroxycyclopentyl]-4-methyl-6-(1H-pyrrolo[2,3-b]pyridin-5-yl)pyrido[2,3-d]pyrimidin-7(8H)-one]
228 nM | 130 nM | Cc1nc(N)nc2c1cc(Br)c(=O)n2[C@H]1CC[C@@H](O)CC1 [Compound 168, 2-amino-6-bromo-8-(cis-4-hydroxycyclohexyl)-4-methylpyrido[2,3-d]pyrimidin-7(8H)-one]
10000 nM | 3400 nM | Cc1nc(N)nc2c1cc(-c1ccc(F)cc1)c(=O)n2CC(C)(C)O [Compound 170, 2-amino-6-(4-fluorophenyl)-8-(2-hydroxy-2-methylpropyl)-4-methylpyrido[2,3-d]pyrimidin-7(8H)-one]
322 nM | 270 nM | Cc1nc(N)nc2c1cc(-c1cnc3ccccc3c1)c(=O)n2CC(C)(C)O [Compound 173, 2-amino-8-(2-hydroxy-2-methylpropyl)-4-methyl-6-quinolin-3-ylpyrido[2,3-d]pyrimidin-7(8H)-one]
19.3 nM | 4.3 nM | COc1ccc(-c2cc3c(C)nc(N)nc3n(C3CCC(=O)CC3)c2=O)cn1 [Compound 175, 2-amino-6-(6-methoxypyridin-3-yl)-4-methyl-8-(4-oxocyclohexyl)pyrido[2,3-d]pyrimidin-7(8H)-one]
64 nM | 31 nM | CO[C@H]1CC[C@H](n2c(=O)c(Br)cc3c(C)nc(N)nc32)CC1 [Compound 178]
7.37 nM | 3.9 nM | COc1ccc(-c2cc3c(C)nc(N)nc3n([C@H]3CC[C@H](OC)CC3)c2=O)cn1 [Compound 179, 2-Amino-8-(trans-4-methoxycyclohexyl)-6-(6-methoxypyridin-3-yl)-4-methylpyrido[2,3-d]pyrimidin-7(8H)-one]
10.1 nM | 6.2 nM | CO[C@H]1CC[C@H](n2c(=O)c(-c3ccc(N(C)C)nc3)cc3c(C)nc(N)nc32)CC1 [Compound 182, 2-amino-6-[6-(dimethylamino)pyridin-3-yl]-8-(trans-4-methoxycyclohexyl)-4-methylpyrido[2,3-d]pyrimidin-7(8H)-one]
211 nM | 110 nM | Cc1nc(N)nc2c1cc(Br)c(=O)n2C1CCC(=O)CC1 [Compound 184, 2-amino-6-bromo-4-methyl-8-(4-oxocyclohexyl)pyrido[2,3-d]pyrimidin-7(8H)-one]
15.2 nM | 18 nM | Cc1nc(N)nc2c1cc(-c1cn[nH]c1)c(=O)n2C1CCC(C)(O)CC1 (stereo not shown) [Compound 185, 2-amino-8-(4-hydroxy-4-methylcyclohexyl)-4-methyl-6-(1H-pyrazol-4-yl)pyrido[2,3-d]pyrimidin-7(8H)-one]
25.2 nM | 10 nM | Cc1nc(N)nc2c1cc(-c1cc[nH]n1)c(=O)n2[C@H]1CC[C@H](O)CC1 [Compound 186, 2-Amino-8-((trans)-4-hydroxycyclohexyl)-4-methyl-6-(1H-pyrazol-3-yl)pyrido[2,3-d]pyrimidin-7(8H)-one]

— patent publication US8633204B2 (Pfizer Inc., priority 2006, dated 2014)
